Assay results published in patent US20210260018A1, “COMPOSITION FOR TREATING FIBROTIC DISEASES, […] THI[…] AS ACTIVE INGREDIENT” (Cellion Biomed Inc., priority 2018, published 2021).

Columns and labels:
[1] = test system: KCa2.3 channel; assay: KCa2.3 channel expression in vascular endothelial cells (real-time PCR, western blotting); type: cell-based, human
Method: (§1) Fibroblasts (CRL-2795; American Type Culture Collection, VA) were cultured in a Dulbecco's Modified Eagle Medium (Hyclone, Logan, Utah), human uterine microvascular endothelial cells (PromoCell GmbH, Heidelberg, Germany) were cultured in an MV2 medium (PromoCell GmbH), and human hepatic stellate cells (Innoprot, Bizkia, Spain) were cultured in a P60126 medium (Innoprot).
(§2) All cells were maintained under a 5% humidified carbon dioxide condition at 37° C. The cultured cells were exposed to each of PDGF, TGFβ, and the compounds of Formulas A1 to A9 (CBM-N1 N9) for 24 hours, followed by performing experiments.
The mRNA expression levels of inflammation or fibrosis factors in extracted liver tissue were measured by real-time PCR. RNA of the liver tissue was isolated with a TRIzol reagent (Molecular Research Center, Cincinnati, Ohio), and single-stranded cDNA was synthesized using BcaBEST polymerase (TakaraShuzo), followed by a polymerase chain reaction.
Cells were lysed with a protein extraction buffer solution, a protein concentration in a supernatant was determined by Bradford analysis, and […] of the protein was loaded on an SDS-PAGE gel and then transferred to a nitrocellulose membrane. The nitrocellulose membrane was blocked with 5% BSA-containing TEST (10 mM Tris-HCl, 150 mM NaCl, and 0.1% (v/v) Tween-20, pH 7.6) at room temperature for 1 hour. […]

[2] = test system: KCa2.3 channel; assay: KCa2.3 channel protein expression in fibroblasts (western blotting); type: cell-based
Method: as §1, §2
(§3) Cells were lysed with a protein extraction buffer solution, a protein concentration in a supernatant was determined by Bradford analysis, and […] of the protein was loaded on an SDS-PAGE gel and then transferred to a nitrocellulose membrane. The nitrocellulose membrane was blocked with 5% BSA-containing TEST (10 mM Tris-HCl, 150 mM NaCl, and 0.1% (v/v) Tween-20, pH 7.6) at room temperature for 1 hour. Blots were incubated overnight with primary antibodies, and then incubated with horseradish peroxidase-conjugated secondary antibodies for 1 hour. Bands were visualized by chemiluminescence. Data collection and processing were performed using an image analyzer (LAS-3000) and IMAGE GAUSE software (Fuji film, Japan).

[3] = test system: KCa2.3 channel; assay: KCa2.3 channel protein expression in hepatic stellate cells (western blotting); type: cell-based, human; details: exposure for 24 hours
Method: as §1, §2, §3

[4] = test system: fibrosis markers (α-SMA, collagen 1α, collagen 3α) in fibroblasts; assay: Expression of fibrosis markers in fibroblasts exposed to TGFβ (western blotting); type: cell-based; details: fibroblasts exposed to TGFβ (5 ng/ml) + compound for 24 hours
Method: as §1, §2, §3

[5] = test system: fibroblasts; assay: MTT cell proliferation in fibroblasts exposed to TGFβ or PDGF; type: cell-based; details: for TGFβ or PDGF-induced cell proliferation: fibroblasts, TGFβ (5 ng/ml) or PDGF (20 ng/ml), 24 hours
Method: as §1, §2
Cells were seeded in 96-well plates at 2×10^4 cells/well, and then exposed to TGFB, which promotes cell proliferation, for 24 hours. In addition, 0.1 mg of MTT was added to each well, followed by exposure for 4 hours at 37° C. Afterward, the culture medium was removed, the cells were lysed with dimethyl sulfoxide, and then absorbance was measured at 590 nm using the following devices.

[6] = test system: TAA-induced liver disease mouse models; assay: TAA-induced liver disease mouse model; type: in vivo; details: TAA mice; for ALT levels / AST blood levels: blood, mean±S.E.M
Method: (§4) To confirm the effects of the compounds of Formula A1 to A5 (CBM-N1˜N5) according to the present invention on liver inflammation and fibrosis, subsequent experiments were performed on […] wild-type mouse (purchased from Orient Bio). First, to induce liver disease in mice, thioacetamide (TAA) were administered to the mice (Experiment A), or the mice were raised on a western diet inducing fatty liver disease (Experiment B). The mice were divided into a normal control, a disease-induced group, and a drug-administered group, and among these three groups, […] were used in each group for Experiment A, and 10 mice were used in each group for Experiment B. A drug treatment method for the mice in each group is as follows:
(§5) (1) Normal control: The normal control in Experiment A was intraperitoneally injected three times a week with the same amount of TAA solvent used when TAA was injected into a disease-induced group, and the normal control in Experiment B was raised on a normal diet. In both of the Experiments A and B, a CM/1-N1 solvent was injected using an oral tube at the same amount as that of CBM-N1 injection five times a week. The TAA solvent was distilled water, the CBM-N1 solvent and a derivative thereof were a 1:1 mixture of DMSO and distilled water. In the accompanying drawings, C or Control refers to a normal control.
(2) Disease-induced group: The disease-induced group in the Experiment A was intraperitoneally injected with TAA at 100 mg/kg three times a week, the disease-induced group in the Experiment B was raised on a western diet (WD, 45% saturated fat, […], and water containing fructose and glucose). All CBM-N1 solvents in the Experiments A and B were administered using an oral tube at the same amount as that of CBM-N1 administration five times a week. In the accompanying drawings, TAA refers to a group in which a disease is induced by TAA, and \VD refers to a group in which a disease is induced by a western diet.
(3) Drug-administered group: In the Experiment A, the compounds of Formulas 1 to 5 (50 mg/kg/day, 5 times/week e administered with TAA (100 mg/kg, 3 times/week), and in the Experiment B, CBM-N1 to N5 (50 mg/kg/day, 5 times/week) were administered with a western diet. The mice treated by the above-described method for 16 weeks were instantly killed by excessively administering an anesthetic, and then the livers and blood were extracted. In the accompanying drawings, TAA+CBM-Ni, TAA+CBM-N2, TAA+CBM-N3, TAA+CBM-N4 and TAA+CBM-N5 refer to disease-induced groups to which the compounds of Formulas A1 to A5 were administered, respectively.
(§6) To histologically confirm the therapeutic effect of the compound of Formula A1 (CBM-N1) or the compound of Formula A9 (CBM-N9) in each mouse model, a paraffin tissue sample was prepared. Liver and lung tissues were fixed with a paraformaldehyde solution, and sliced to a thickness of 1 to 2 mm. The sectioned tissues were embedded in paraffin, sliced to a thickness of 4 μm to remove paraffin with xylene, and the xylene was removed with ethanol, followed by washing with tap water. The resulting tissues were subjected to hematoxylin and eosin staining (H&E staining) or immunohistochemistry.
(1) H&E staining: Nuclei were first stained (blue) with a Harris hematoxylin staining solution for 5 minutes, and counter-stained (pink) with an eosin solution.
(2) Immunohistochemistry for inflammation markers: Inflammation markers (CD82 and CD45) were stained with specific antibodies, and lymphoid cells were stained brown.
(3) Immunohistochemistry for fibrosis markers: Collagen was stained by Masson's trichrome staining, or reticulin fibers were stained by reticulin staining.
Aspartic acid aminotransferase (AST, GOT) and alanine aminotransferase (ALT, GPT), total bilirubin and albumin concentrations were measured using blood collected from liver disease mouse models. […]

[7] = test system: western diet-induced liver disease mouse models; assay: Western diet-induced liver disease mouse model; type: in vivo; details: western diet mice
Method: as §4, §5
(2) Disease-induced group: The disease-induced group in the Experiment A was intraperitoneally injected with TAA at 100 mg/kg three times a week, the disease-induced group in the Experiment B was raised on a western diet (WD, 45% saturated fat, […], and water containing fructose and glucose). […]
Aspartic acid aminotransferase (AST, GOT) and alanine aminotransferase (ALT, GPT), total bilirubin and albumin concentrations were measured using blood collected from liver disease mouse models.
The mRNA expression levels of inflammation or fibrosis factors in extracted liver tissue were measured by real-time PCR. […]

[8] = test system: KCa2.3 channel; assay: KCa2.3 current in hepatic stellate cells (whole-cell patch-clamp); type: cell-based, human; details: membrane potential of 1-50 mV, exposure for 24 hours
Method: as §1, §2
A whole cell current through a cell membrane in the isolated and cultured single cells was measured using a patch-clamp technique. […]
A standard external solution contained 150 mM NaCl, 6 mM KCl, 1.5 mM CaCl2), 1 mM MgCl2, 10 mM HEPES and 10 mM glucose at pH 7.4 (titrated NaOH), and a micro glass electrode (pipette) solution contained 40 mM KCl, 100 mM K-aspartate, 2 mM MgCl2, 0.1 mM EGTA, 4 mM Na2ATP and 10 mM HEPES at pH 7.2 (titrated with KOH). A free Ca^2+ concentration in the pipette solution was adjusted to 1 μM by adding an appropriate amount of Ca^2+ in the presence of 5 mM EGTA (calculated with CaBuf; Droogmans, Leuven, Belgium), […]

[9] = test system: bleomycin-induced pulmonary fibrosis mouse models; assay: Bleomycin-induced pulmonary inflammation and fibrosis mouse model; type: in vivo; details: lung tissue, bleomycin mice
Method: To confirm the effect of the compound of Formula A9 (CBM-N9) on pulmonary inflammation and fibrosis caused by bleomycin, the following experiments were performed on C57BL/6 wild-type mice. First, the mice were divided into a normal control, a disease-induced group, and a drug-administered group, and ten mice were included in each of the three groups. A drug treatment method for the mice in each group is as follows:
(1) Normal control: The same amount of distilled water as used when the bleomycin was applied in the disease-induced group was instilled intratracheally. In addition, a CBM-N9 solvent was intraperitoneally injected at the same amount used when CBM-N9 was administered to the disease-induced group to be described below five times a week.
(2) Disease-induced group: 1.5 units of bleomycin was instilled intratracheally. In addition, a CBM-N9 solvent was intraperitoneally injected at the same amount used in CBM-N9 administration five times a week.
(3) Drug-administered group: 1.5 units of bleomycin was intratracheally instilled. In addition, CBM-N9 (50 mg/kg) was injected intraperitoneally five times a week.
The mice treated with the drug for 4 weeks in the same manner as described above were instantly killed by excessively administering an anesthetic, and then the lungs were extracted.
as §6, with “The resulting tissues were subjected to hematoxylin and eosin staining (H&E staining) or immunohistochemistry.” left out
Cells were lysed with a protein extraction buffer solution, a protein concentration in a supernatant was determined by Bradford analysis, and […] of the protein was loaded on an SDS-PAGE gel and then transferred to a nitrocellulose membrane. […]

[10] = test system: KCa3.1 channel; assay: KCa3.1 channel expression in vascular endothelial cells; type: cell-based, human; details: PDGF treatment, 24 hours
Chain of KCa3.1 channel (O15554 whole entry): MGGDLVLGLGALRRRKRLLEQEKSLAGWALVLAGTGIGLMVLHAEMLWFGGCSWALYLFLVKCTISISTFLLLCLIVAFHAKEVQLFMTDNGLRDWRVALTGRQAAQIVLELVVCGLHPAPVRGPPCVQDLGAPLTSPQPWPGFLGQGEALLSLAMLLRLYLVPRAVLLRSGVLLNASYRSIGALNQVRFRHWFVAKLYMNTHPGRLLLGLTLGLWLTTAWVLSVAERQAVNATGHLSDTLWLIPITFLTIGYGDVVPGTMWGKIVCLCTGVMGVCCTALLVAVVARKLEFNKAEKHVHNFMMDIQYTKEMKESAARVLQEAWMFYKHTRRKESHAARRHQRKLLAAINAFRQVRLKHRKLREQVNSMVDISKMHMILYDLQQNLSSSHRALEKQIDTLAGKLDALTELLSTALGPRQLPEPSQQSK
Method: as §1, §2, §3

[11] = liver tissue, versus disease-induced group
[12] = blood, 50 mg/kg/day, 16 weeks, mean±S.E.M

| Compound | expression of the KCa2.3 channel protein [3] | ALT levels ([6]; 50 mg/kg/day, 16 weeks) [units/L] | AST blood levels ([6]; 50 mg/kg/day, 16 weeks) [units/L] | mRNA level of inflammation factors (inflammatory cytokines TNFα, CCL2, IL12, TGF, IL1α, IL6, MIP-2) [6, 11] | other results |
| --- | --- | --- | --- | --- | --- |
| NC(=O)C[S+]([O-])C(c1ccccc1)c1ccccc1 (stereo not shown) [CBM-N1, 2-(benzhydrylsulfinyl)acetamide] | reduced in hepatic stellate cells in a concentration-dependent manner | 70.3±14.7 | 62.7±11.6 | decreased | expression of the KCa2.3 channel protein ([1]; vascular endothelial cells with KCa2.3 expression increased with PDGF, treated for 24 hours): significantly decreased; expression level of the KCa2.3 channel protein [2]: reduced; expression levels of the fibrosis markers (α-SMA, collagen 1α, collagen 3α proteins) [4]: reduced; cell proliferation ([5]; fibroblasts exposed to TGFβ (5 ng/ml) + compound for 24 hours): inhibited; number of inflammation cells (H&E staining of liver tissue) ([6]; 50 mg/kg/day, 16 weeks, versus disease-induced group): significantly decreased; mRNA expression levels of fibrosis markers (Col1α, Col3α, Col4α, α-SMA, TGFR2) ([6]; liver tissue): decreased; ALT levels [7, 12]: 87.2±24.7 units/L; AST blood levels [7, 12]: 71.4±19.8 units/L; mRNA expression levels of inflammatory cytokines CCL2, IL6 and IL1α [7, 11]: decreased |
| O=C(CSC(c1ccccc1)c1ccccc1)NCC1CCCO1 (stereo not shown) [CBM-N2, 2-(benzhydrylthio)-N-[(tetrahydrofuran-2-yl)methyl]acetamide] | significantly reduced | 113.4±7.9 | 83.6±14.8 | decreased | – |
| O=C(CSC(c1ccccc1)c1ccccc1)Nc1ccccc1 [CBM-N3, 2-(benzhydrylthio)-N-phenylacetamide] | – | 103.0±6.9 | 73.4±7.4 | decreased | – |
| CNC(=O)C[S+]([O-])C(c1ccccc1)c1ccccc1 (stereo not shown) [CBM-N4, 2-(benzhydrylsulfinyl)-N-methylacetamide] | – | 114.1±8.8 | 66.6±9.4 | decreased | – |
| O=C(C[S+]([O-])C(c1ccccc1)c1ccccc1)NCC1CCCO1 (stereo not shown) [CBM-N5, 2-(benzhydrylsulfinyl)-N-[(tetrahydrofuran-2-yl)methyl]acetamide] | significantly reduced | 106.4±12.8 | 67.7±10.2 | decreased | – |
| NC(=O)C[S+]([O-])C(c1cccc(F)c1)c1cccc(F)c1 (stereo not shown) [CBM-N8, 2-[bis(3-fluorophenyl)methanesulfinyl]acetamide] | significantly reduced | – | – | – | TGFβ or PDGF-induced cell proliferation [5]: significantly reduced |
| NC(=O)C[S+]([O-])C(c1ccc(F)cc1)c1ccc(F)cc1 (stereo not shown) [CBM-N9, 2-[bis(4-fluorophenyl)methanesulfinyl]acetamide] | significantly reduced | – | – | – | KCa2.3 current densities versus cells not exposed [8]: significantly decreased; TGFβ or PDGF-induced cell proliferation [5]: significantly reduced; degrees of inflammation and fibrosis (H&E, CD45 immunohistochemistry, Masson's trichrome) ([9]; 50 mg/kg intraperitoneally five times a week, 4 weeks, versus disease-induced group): decreased; protein expression levels of inflammation markers TIMP-2 and CCR2 ([9]; FIG. 13A): greatly decreased; expression of fibrosis marker proteins (printed: protein expression levels of TIMP-2 and, CCR2) ([9]; FIG. 13B): greatly decreased |
| PDGF | – | – | – | – | expression of the mRNA and protein of the KCa2.3 channel ([1]; vascular endothelial cells exposed to PDGF (20 ng/ml) or TGF (5 ng/ml) for 24 hours): increased; expression of the KCa3.1 channel [10]: did not increase |
